Measurements reported in patent US20240166755A1, “CHIMERIC ANTIGEN RECEPTORS TARGETING CANCER” (University of Southern California, priority 2016, published 2024).

Columns and labels:
[1] = test system: Blinatumomab induced cell death of RAJI-GLuc cells mediated by T cells; assay: Blinatumomab-induced, T cell-mediated death of RAJI-GLuc cells and its block by drugs (GLuc assay); format: cell-based, human
Lck = Lck (Homo sapiens, UniProt P06239); conditions: Lck versus Fyn; cited from earlier work
[2] = test system: CAR-T cells induced death of RAJI-GLuc cells; assay: Effect of drugs on CAR-T cell-induced death of RAJI-GLuc cells (GLuc assay); format: cell-based, human; conditions: for CAR-T cells induced death of RAJI-pLenti-GLuc cells / CAR-T cell-induced death of RAJI-pLenti-GLuc cells / CAR-T cells induced cell death: CD19Bu12 CAR-T cells; for CAR-T cell-induced death of RAJI-pLenti-GLuc cells: versus media alone; for CAR-T cell induced cell death: FMC63 and CD19MM CAR-T cells, Imatinib 50 nM and 500 nM, Nilotinib 10 nM and 100 nM, Axitinib
[3] = test system: target cells expressing their respective target antigen; assay: Jurkat-NFAT-GFP assay, co-culture with target cells expressing the respective target antigen (Table 28); conditions: Jurkat-NFAT-GFP cells expressing the CAR; cell line(s) giving greater % GFP positive cells than parental
NF-κB = NF-κB luciferase reporter assay in 293FT cells; format: cell-based; conditions: upon treatment with AP20187, versus untreated
Procedure: NF-κB reporter assay was carried out essentially as described (Chaudhary et al., Oncogene 18:5738-46, 1999). The indicated constructs were transiently transfected in 293FT cells along with a luciferase reporter construct driven by 4 copies of NF-κB binding site and a RSV-LacZ reporter construct. Cells were left untreated or treated with AP20187, which dimerizes the FKBP domains, resulting in activation of K13 signaling. Approximately 24 hr later, cells were lysed and NF-κB-Luc and LacZ activities measured in cell lysates. NF-κB-Luc activity was normalized relative to LacZ activity to control for difference in transfection efficiency. […] Thus, activity of K13 and Tax can be controlled by fusion with FKBP and subsequent administration of AP20187 when they are expressed alone or as part of CAR constructs.
It would be useful to have novel mutants of K13 with varying levels of NF-κB activity for the purpose of adoptive cellular therapy and other applications. Site-directed mutagenesis was conducted using Quickchange site-directed kit (Stratagene) to generate several point mutants of K13 in which the different amino acids of K13 (SEQ ID NO:2629) were mutated. For example, in the mutant K19A the amino acid Lysine at position 19 is mutated to alanine. […] Approximately 24 hr later, cells were lysed and NF-κB-Luc and LacZ activities measured in cell lysates. […]

[4] = at the indicated concentrations

Sequence of Lck (P06239 whole entry, species assumed): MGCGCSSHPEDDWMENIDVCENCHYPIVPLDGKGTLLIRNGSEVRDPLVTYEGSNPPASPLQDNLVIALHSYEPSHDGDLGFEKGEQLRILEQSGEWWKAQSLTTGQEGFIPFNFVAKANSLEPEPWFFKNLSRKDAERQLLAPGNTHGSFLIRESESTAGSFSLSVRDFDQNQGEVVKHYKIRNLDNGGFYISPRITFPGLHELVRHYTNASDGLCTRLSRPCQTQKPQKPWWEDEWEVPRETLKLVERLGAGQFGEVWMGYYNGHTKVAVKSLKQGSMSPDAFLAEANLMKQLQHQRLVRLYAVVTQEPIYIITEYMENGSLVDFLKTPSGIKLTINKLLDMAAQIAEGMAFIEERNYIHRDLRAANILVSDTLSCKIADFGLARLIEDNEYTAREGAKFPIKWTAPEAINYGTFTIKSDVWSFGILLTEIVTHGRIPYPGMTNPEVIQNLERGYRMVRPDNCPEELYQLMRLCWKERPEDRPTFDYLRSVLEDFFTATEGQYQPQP

COc1cc(-c2nn([C@H]3CC[C@H](N4CCN(C(C)=O)CC4)CC3)c3ncnc(N)c23)ccc1NC(=O)c1cc2ccccc2n1C [A-770041]
cell death induced by combination of Blinatumomab with T cells ([1]; 100 nM): partially blocked | cell death induced by combination of Blinatumomab with T cells ([1]; 200 nM): complete inhibition | selective against Fyn (Lck): 300 fold | CAR-T cells induced death of RAJI-pLenti-GLuc cells ([2]; 100 nM and 200 nM): near complete inhibition

COc1cc(Nc2ncc3c(n2)-c2ccc(Cl)cc2C(c2c(F)cccc2OC)=NC3)ccc1C(=O)O [Alisertib]
Blinatumomab induced cell death mediated by T cells [1, 4]: only a minimal effect | CAR-T cell-induced death of RAJI-pLenti-GLuc cells [2]: mild to modest inhibition

CC(C)c1cc(C(C)C)c(CC(=O)NS(=O)(=O)Oc2c(C(C)C)cccc2C(C)C)c(C(C)C)c1 [Avasimibe]
Blinatumomab induced cell death mediated by T cells ([1]; 1 μM): blocked | CAR-T cells induced cell death ([2]; 100 nM): no significant effect | CAR-T cells induced cell death ([2]; 1 μM): completely blocked

CNC(=O)c1ccccc1Sc1ccc2c(/C=C/c3ccccn3)n[nH]c2c1 [Axitinib]
CAR-T cell induced cell death [2]: no effect

COc1cc(Nc2ncc(F)c(Nc3ccc4c(n3)N(COP(=O)(O)O)C(=O)C(C)(C)O4)n2)cc(OC)c1OC [Fosatamatinib]
Blinatumomab induced cell death mediated by T cells [1, 4]: only a minimal effect | CAR-T cell-induced death of RAJI-pLenti-GLuc cells [2]: mild to modest inhibition

Cc1ccc(NC(=O)c2ccc(CN3CCN(C)CC3)cc2)cc1Nc1nccc(-c2cccnc2)n1 [Imatinib]
CAR-induced cell death ([2]; CD19MM CAR-T cells, E:T 5:1, 4 h, indicated concentrations): no effect | CAR-T cell induced cell death [2]: no effect

Cc1cn(-c2cc(NC(=O)c3ccc(C)c(Nc4nccc(-c5cccnc5)n4)c3)cc(C(F)(F)F)c2)cn1 [Nilotinib]
CAR-T cell induced cell death [2]: no effect

CN1CCN(CCOc2cc(OC3CCOCC3)c3c(Nc4c(Cl)ccc5c4OCO5)ncnc3c2)CC1 [Saracatinib]
CAR-T cells induced death of RAJI-pLenti-GLuc cells ([2]; concentration not given): no significant effect

CD8SP-CD22-m971-(vL-vH)-Myc-BBz-T2A-PAC(091515-A02)[SEQ ID NO: 1519]
Positive Cell Line on co-culture assay [3]: RAJI, NALM6

CD8SP-GD3-KM-641-(vL-vH)-Myc-z-P2A-K13-Flag-T2A-PAC(051016-D04)[SEQ ID NO: 1065]
Positive Cell Line on co-culture assay [3]: MEL624

FKBPX2-K13: K13 in fusion with two copies of FKBP dimerization domain
K13- and HTLV2-Tax RS mutant-induced NF-κB-Luc activity (NF-κB): increase
